Measurements reported in US10047051B2, “Substituted pyridines and method of use” (AbbVie S.á{acute over (.)}r.l., priority 2015, dated 2018).

What was measured:
[1] = molecular target: T1, CFTR ΔF508 mutant (Homo sapiens, UniProt P13569, DEL508-508); test: YFP-halide influx assay for the CFTR-ΔF508 mutation (CFBE41o- cells); format: cell-based; conditions: forskolin 10.67 μM; for EC50: from (1−F/F0) vs concentration plot
T1 construct: expressed in transfected cells; host or cells: CFBE41o- cells, adenoviral transduction
How it was run: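 EC50 derived from plotting 1−F/F0 (fluorescence 36 s after iodide injection over pre-injection value) against compound concentration. Cells: CFBE41o- transduced with ΔF508-CFTR and YFP quench reporter, corrected 24 h at 27° C or by a CFTR modulator at 37° C.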

[2] = molecular target: T2, CFTR G551D mutant (Homo sapiens, UniProt P13569, G551D); test: YFP-halide influx assay for the CFTR-G551D mutation (HEK293 cells); format: cell-based; conditions: forskolin 10.67 μM
T2 construct: expressed in transfected cells; host or cells: HEK293 cells, reverse transfection with plasmids
Source text: The YFP halide influx assay measured the functionality of the cystic fibrosis Transmembrane Conductance regulator (CFTR) channels. The assay was used to evaluate the capacity of compounds to increase the channel opening of existing mutant CFTR channels in the membrane. It makes use of the observation that the yellow fluorescent protein (YFP) variant YFP H148Q, I152L, F47L has its fluorescence substantially quenched by halide ions like Cl^− and I^− (Galietta, L. J. V., Haggie, P. M., Verkman, A. S., 2001. Green fluorescent protein-based halide indicators with improved chloride and iodide affinities. FEBS Lett. 499, 220-224. doi:10.1016/S0014-5793(01)02561-3).
For this purpose, HEK293-cells were seeded in 96 well plates. During seeding, the cells were reverse-transfected with plasmid vectors that direct the expression of the CFTR G551D mutant and of the YFP reporter. Cells were incubated at 37° C., 5% CO2 for 24 hours so as to allow for sufficient expression of the CFTR protein.
The I^−-induced quenching of fluorescence was recorded immediately after injection of I^− for 7 seconds. The capacity of a compound to increase the channel opening was directly correlated with the decrease in fluorescence, and was expressed as (1−(fluorescence after 7 seconds (F)/fluorescence before injection (F0))) and an EC50 was derived from a (1−F/F0) vs compound concentration plot.

T2 sequence (P13569 whole entry G551D): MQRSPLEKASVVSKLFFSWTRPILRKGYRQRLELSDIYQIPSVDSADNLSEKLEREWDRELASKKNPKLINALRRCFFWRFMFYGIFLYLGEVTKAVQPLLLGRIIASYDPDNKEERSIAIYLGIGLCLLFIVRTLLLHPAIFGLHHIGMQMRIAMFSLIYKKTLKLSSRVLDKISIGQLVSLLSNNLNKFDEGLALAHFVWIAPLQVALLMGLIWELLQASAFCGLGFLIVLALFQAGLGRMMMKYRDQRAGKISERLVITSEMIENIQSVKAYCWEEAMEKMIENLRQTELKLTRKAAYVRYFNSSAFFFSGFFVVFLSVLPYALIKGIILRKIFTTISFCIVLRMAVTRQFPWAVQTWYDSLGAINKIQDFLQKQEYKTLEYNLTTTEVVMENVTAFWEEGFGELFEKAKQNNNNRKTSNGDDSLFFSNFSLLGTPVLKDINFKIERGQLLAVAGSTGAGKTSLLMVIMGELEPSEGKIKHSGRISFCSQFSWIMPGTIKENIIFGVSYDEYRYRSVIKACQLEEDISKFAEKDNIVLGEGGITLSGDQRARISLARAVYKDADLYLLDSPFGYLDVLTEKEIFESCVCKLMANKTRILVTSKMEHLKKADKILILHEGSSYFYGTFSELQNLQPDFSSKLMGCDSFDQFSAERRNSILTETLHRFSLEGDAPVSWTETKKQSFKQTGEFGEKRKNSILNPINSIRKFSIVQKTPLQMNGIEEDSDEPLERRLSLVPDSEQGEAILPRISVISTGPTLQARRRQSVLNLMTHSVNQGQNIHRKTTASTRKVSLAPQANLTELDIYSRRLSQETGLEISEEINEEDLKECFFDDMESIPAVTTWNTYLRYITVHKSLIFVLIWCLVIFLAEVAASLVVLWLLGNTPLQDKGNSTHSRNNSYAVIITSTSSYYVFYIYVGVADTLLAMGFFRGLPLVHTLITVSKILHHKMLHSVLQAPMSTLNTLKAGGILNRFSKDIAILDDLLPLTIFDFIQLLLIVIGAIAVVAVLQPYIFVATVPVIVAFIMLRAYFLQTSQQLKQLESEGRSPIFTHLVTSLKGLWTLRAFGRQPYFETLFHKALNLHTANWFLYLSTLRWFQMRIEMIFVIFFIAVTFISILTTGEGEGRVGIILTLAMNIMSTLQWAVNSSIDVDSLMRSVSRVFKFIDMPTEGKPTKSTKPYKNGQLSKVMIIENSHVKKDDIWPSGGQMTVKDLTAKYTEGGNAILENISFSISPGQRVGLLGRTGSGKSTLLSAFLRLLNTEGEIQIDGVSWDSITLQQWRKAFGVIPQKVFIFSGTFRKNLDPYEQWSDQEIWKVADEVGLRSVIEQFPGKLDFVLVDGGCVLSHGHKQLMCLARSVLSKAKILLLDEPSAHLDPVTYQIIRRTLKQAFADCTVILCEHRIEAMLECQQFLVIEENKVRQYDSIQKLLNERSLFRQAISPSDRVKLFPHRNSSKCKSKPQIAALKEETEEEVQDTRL
T1 sequence (P13569 with tags, fused parts or gaps DEL508-508): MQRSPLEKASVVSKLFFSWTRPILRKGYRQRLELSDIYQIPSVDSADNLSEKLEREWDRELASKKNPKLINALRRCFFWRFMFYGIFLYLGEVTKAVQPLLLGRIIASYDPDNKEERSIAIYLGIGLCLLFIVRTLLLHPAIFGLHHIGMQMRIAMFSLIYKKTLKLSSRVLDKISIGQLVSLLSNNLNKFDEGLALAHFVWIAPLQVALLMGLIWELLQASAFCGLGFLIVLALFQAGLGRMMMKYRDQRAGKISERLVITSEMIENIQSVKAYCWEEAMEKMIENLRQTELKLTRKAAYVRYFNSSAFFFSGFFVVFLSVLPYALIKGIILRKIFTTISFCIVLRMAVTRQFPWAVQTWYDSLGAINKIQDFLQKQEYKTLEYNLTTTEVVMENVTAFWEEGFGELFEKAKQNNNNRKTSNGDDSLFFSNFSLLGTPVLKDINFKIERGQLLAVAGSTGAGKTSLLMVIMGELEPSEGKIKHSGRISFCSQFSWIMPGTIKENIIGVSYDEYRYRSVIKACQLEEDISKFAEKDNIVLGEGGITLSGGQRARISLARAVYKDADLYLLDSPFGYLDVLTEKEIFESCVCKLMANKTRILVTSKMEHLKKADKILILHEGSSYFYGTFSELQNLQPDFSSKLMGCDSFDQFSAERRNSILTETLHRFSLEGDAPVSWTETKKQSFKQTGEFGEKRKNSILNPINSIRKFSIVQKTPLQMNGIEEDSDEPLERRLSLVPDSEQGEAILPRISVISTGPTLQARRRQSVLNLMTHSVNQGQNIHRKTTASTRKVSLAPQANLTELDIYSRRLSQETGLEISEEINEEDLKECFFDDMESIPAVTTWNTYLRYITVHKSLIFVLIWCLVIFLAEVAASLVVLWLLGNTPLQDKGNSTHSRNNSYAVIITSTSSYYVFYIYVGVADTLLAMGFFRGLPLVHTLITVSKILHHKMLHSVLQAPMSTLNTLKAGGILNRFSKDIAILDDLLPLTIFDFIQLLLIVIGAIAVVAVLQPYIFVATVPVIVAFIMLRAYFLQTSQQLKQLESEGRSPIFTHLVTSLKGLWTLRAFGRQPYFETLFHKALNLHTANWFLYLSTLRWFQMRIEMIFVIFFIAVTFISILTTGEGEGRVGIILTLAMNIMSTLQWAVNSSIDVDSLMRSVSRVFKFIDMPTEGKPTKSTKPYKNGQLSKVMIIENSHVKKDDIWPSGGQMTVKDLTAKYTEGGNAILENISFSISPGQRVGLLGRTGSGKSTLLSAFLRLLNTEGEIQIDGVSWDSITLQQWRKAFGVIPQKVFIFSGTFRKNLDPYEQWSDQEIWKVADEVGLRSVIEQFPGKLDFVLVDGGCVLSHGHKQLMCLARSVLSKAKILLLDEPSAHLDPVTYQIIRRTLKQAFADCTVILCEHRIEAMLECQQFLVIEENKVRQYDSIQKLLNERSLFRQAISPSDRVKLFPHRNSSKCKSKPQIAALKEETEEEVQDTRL

For `Nc1cc(S(=O)(=O)c2ccccc2OC(F)(F)F)cnc1C(=O)N1CC(O)C1` [Compound 76, (3-amino-5-{[2-(trifluoromethoxy)phenyl]sulfonyl}pyridin-2-yl)(3-hydroxyazetidin-1-yl)methanone], the “% Activation” value [1] was 112.0%, the EC50 [1] was 4.3 nM and the “% Activation” value [2] was 54.3%. It also gave an EC50 [2] of over 3330 nM.
For `Nc1cc(S(=O)(=O)c2ccc(OC(F)(F)F)cc2F)cnc1C(=O)N1CC(O)C1` [Compound 77, (3-amino-5-{[2-fluoro-4-(trifluoromethoxy)phenyl]sulfonyl}pyridin-2-yl) (3-hydroxyazetidin-1-yl)methanone], the “% Activation” value [1] was 98.8%, the EC50 [1] was 15.3 nM and the “% Activation” value [2] was 41.0%. The EC50 [2] was over 3330 nM.
In the case of `Nc1cc(S(=O)(=O)N2CCC(F)(F)CC2)cnc1C(=O)NCC(O)C(F)(F)F` (centres unmarked) [Compound 84, 3-amino-5-[(4,4-difluoropiperidin-1-yl)sulfonyl]-N-(3,3,3-trifluoro-2-hydroxypropyl)pyridine-2-carboxamide], the “% Activation” value [1] is reported as 101.0%, the EC50 [1] is reported as 10.5 nM and the “% Activation” value [2] is reported as 64.4%. It also gave an EC50 [2] of 1940 nM.
In the case of `CC(C)CC(O)CNC(=O)c1ncc(S(=O)(=O)c2ccc(OC(F)(F)F)cc2)cc1N` (centres unmarked) [Compound 87, 3-amino-N-(2-hydroxy-4-methylpentyl)-5-{[4-(trifluoromethoxy)phenyl]sulfonyl}pyridine-2-carboxamide], the “% Activation” value [1] is reported as 102.0%, the EC50 [1] is reported as 11.9 nM and the “% Activation” value [2] is reported as 67.5%. The EC50 [2] was 997 nM.
In the case of `CCOCC(O)CNC(=O)c1ncc(S(=O)(=O)c2ccc(OC(F)(F)F)cc2)cc1N` (centres unmarked) [Compound 88, 3-amino-N-(3-ethoxy-2-hydroxypropyl)-5-{[4-(trifluoromethoxy)phenyl]sulfonyl}pyridine-2-carboxamide], the “% Activation” value [1] is reported as 96.0%, the EC50 [1] is reported as 12.4 nM and the “% Activation” value [2] is reported as 82.0%. For the same molecule, the EC50 [2] was 762 nM.
In the case of `CC1(O)CN(C(=O)c2ncc(S(=O)(=O)c3ccc(OC(F)(F)F)cc3)cc2N)C1` [Compound 89, (3-amino-5-{[4-(trifluoromethoxy)phenyl]sulfonyl}pyridin-2-yl)(3-hydroxy-3-methylazetidin-1-yl)methanone], the “% Activation” value [1] is reported as 99.6%, the EC50 [1] is reported as 6.9 nM and the “% Activation” value [2] is reported as 53.6%. The EC50 [2] was over 3330 nM.
For `CC(C)OCC(O)CNC(=O)c1ncc(S(=O)(=O)c2ccc(OC(F)(F)F)cc2)cc1N` (centres unmarked) [Compound 90, 3-amino-N-[2-hydroxy-3-(propan-2-yloxy)propyl]-5-{[4-(trifluoromethoxy)phenyl]sulfonyl}pyridine-2-carboxamide], the “% Activation” value [1] was 101.0%, the EC50 [1] was 4 nM and the “% Activation” value [2] was 86.8%. The EC50 [2] was 216 nM.
For `CN(C1CC1)S(=O)(=O)c1cnc(C(=O)NCC(O)C(F)(F)F)c(N)c1` (centres unmarked) [Compound 94, 3-amino-5-[cyclopropyl(methyl)sulfamoyl]-N-(3,3,3-trifluoro-2-hydroxypropyl)pyridine-2-carboxamide], the “% Activation” value [1] was 102.0%, the EC50 [1] was 22.2 nM and the “% Activation” value [2] was 43.4%. For the same molecule, the EC50 [2] was 1140 nM.
For `Nc1cc(S(=O)(=O)N2CC(F)(F)C2)cnc1C(=O)NCC(O)C(F)(F)F` (centres unmarked) [Compound 97, 3-amino-5-[(3,3-difluoroazetidin-1-yl)sulfonyl]-N-(3,3,3-trifluoro-2-hydroxypropyl)pyridine-2-carboxamide], the “% Activation” value [1] was 92.9%, the EC50 [1] was 102 nM and the “% Activation” value [2] was 23.8%. The EC50 [2] was over 10000 nM.
`C[C@H](O)CNC(=O)c1ncc(S(=O)(=O)c2ccc(C(F)(F)F)cc2F)cc1N` [Compound 98, 3-amino-5-{[2-fluoro-4-(trifluoromethyl)phenyl]sulfonyl}-N-[(2S)-2-hydroxypropyl]pyridine-2-carboxamide] was tested, and the “% Activation” value [1] was 95.6%, the EC50 [1] was 7.4 nM and the “% Activation” value [2] was 60.2%. The EC50 [2] was 685 nM.
With `Nc1cc(S(=O)(=O)c2ccc(C(F)(F)F)cc2)cnc1C(=O)NC[C@H]1CCOC1` [Compound 101, 3-amino-N-[(3R)-tetrahydrofuran-3-ylmethyl]-5-{[4-(trifluoromethyl)phenyl]sulfonyl}pyridine-2-carboxamide] the “% Activation” value [1] was 106.5%, the EC50 [1] was 64.2 nM and the “% Activation” value [2] was 71.2%. It also gave an EC50 [2] of 1580 nM.
`Nc1cc(S(=O)(=O)c2ccc(C(F)(F)F)cc2)cnc1C(=O)NC[C@@H]1CCOC1` [Compound 102, 3-amino-N-[(3S)-tetrahydrofuran-3-ylmethyl]-5-{[4-(trifluoromethyl)phenyl]sulfonyl}pyridine-2-carboxamide] was tested, and the “% Activation” value [1] was 119.0%, the EC50 [1] was 28.2 nM and the “% Activation” value [2] was 73.6%. The EC50 [2] was 1360 nM.
For `CC(C)NC(=O)CNC(=O)c1ncc(S(=O)(=O)c2ccc(C(F)(F)F)cc2)cc1N` [Compound 104, 3-amino-N-[2-oxo-2-(propan-2-ylamino)ethyl]-5-{[4-(trifluoromethyl)phenyl]sulfonyl}pyridine-2-carboxamide], the “% Activation” value [1] was 100.8%, the EC50 [1] was 18.9 nM and the “% Activation” value [2] was 26.1%. It also gave an EC50 [2] of over 10000 nM.
With `Nc1cc(S(=O)(=O)c2ccc(C(F)(F)F)cc2)cnc1C(=O)N1CC(O)(C(F)(F)F)C1` [Compound 105, (3-amino-5-{[4-(trifluoromethyl)phenyl]sulfonyl}pyridin-2-yl)[3-hydroxy-3-(trifluoromethyl)azetidin-1-yl]methanone] the “% Activation” value [1] was 103.5%, the EC50 [1] was 2 nM and the “% Activation” value [2] was 50.4%. For the same molecule, the EC50 [2] was 128 nM.
For `Nc1cc(S(=O)(=O)c2ccc(C(F)(F)F)cc2F)cnc1C(=O)NC[C@H]1CCOC1` [Compound 106, 3-amino-5-{[2-fluoro-4-(trifluoromethyl)phenyl]sulfonyl}-N-[(3R)-tetrahydrofuran-3-ylmethyl]pyridine-2-carboxamide], the “% Activation” value [1] was 99.0%, the EC50 [1] was 19.5 nM and the “% Activation” value [2] was 42.4%. It also gave an EC50 [2] of over 3330 nM.
In the case of `Nc1cc(S(=O)(=O)c2ccc(C(F)(F)F)cc2F)cnc1C(=O)NC[C@@H](O)C(F)(F)F` [Compound 107, 3-amino-5-{[2-fluoro-4-(trifluoromethyl)phenyl]sulfonyl}-N-[(2R)-3,3,3-trifluoro-2-hydroxypropyl]pyridine-2-carboxamide], the “% Activation” value [1] is reported as 103.0%, the EC50 [1] is reported as 1.5 nM and the “% Activation” value [2] is reported as 81.7%. It also gave an EC50 [2] of 164 nM.
In the case of `COCCN(C1CC1)S(=O)(=O)c1cnc(C(=O)NCC(O)C(F)(F)F)c(N)c1` (centres unmarked) [Compound 108, 3-amino-5-[cyclopropyl(2-methoxyethyl)sulfamoyl]-N-(3,3,3-trifluoro-2-hydroxypropyl)pyridine-2-carboxamide], the “% Activation” value [1] is reported as 110.0%, the EC50 [1] is reported as 18.2 nM and the “% Activation” value [2] is reported as 56.8%. For the same molecule, the EC50 [2] was 1700 nM.
In the case of `Nc1cc(S(=O)(=O)N2CCOc3ccccc32)cnc1C(=O)NCC(O)C(F)(F)F` (centres unmarked) [Compound 109, 3-amino-5-(2,3-dihydro-4H-1,4-benzoxazin-4-ylsulfonyl)-N-(3,3,3-trifluoro-2-hydroxypropyl)pyridine-2-carboxamide], the “% Activation” value [1] is reported as 104.0%, the EC50 [1] is reported as 3.6 nM and the “% Activation” value [2] is reported as 62.6%. For the same molecule, the EC50 [2] was 296 nM.
In the case of `CC1(C)CN(C(=O)c2ncc(S(=O)(=O)c3ccc(C(F)(F)F)cc3)cc2N)C1` [Compound 110, (3-amino-5-{[4-(trifluoromethyl)phenyl]sulfonyl}pyridin-2-yl)(3,3-dimethylazetidin-1-yl)methanone], the “% Activation” value [1] is reported as 116.0%, the EC50 [1] is reported as 33.5 nM and the “% Activation” value [2] is reported as 83.6%. The EC50 [2] was 1140 nM.
With `CC1(C)CN(C(=O)c2ncc(S(=O)(=O)c3ccc(C(F)(F)F)cc3F)cc2N)C1` [Compound 111, (3-amino-5-{[2-fluoro-4-(trifluoromethyl)phenyl]sulfonyl}pyridin-2-yl)(3,3-dimethylazetidin-1-yl)methanone] the “% Activation” value [1] was 103.2%, the EC50 [1] was 22.6 nM and the “% Activation” value [2] was 99.2%. For the same molecule, the EC50 [2] was 851 nM.
In the case of `Nc1cc(S(=O)(=O)c2ccc(C(F)(F)F)cc2F)cnc1C(=O)N1CC(O)(C(F)(F)F)C1` [Compound 112, (3-amino-5-{[2-fluoro-4-(trifluoromethyl)phenyl]sulfonyl}pyridin-2-yl)[3-hydroxy-3-(trifluoromethyl)azetidin-1-yl]methanone], the “% Activation” value [1] is reported as 100.6%, the EC50 [1] is reported as 2.6 nM and the “% Activation” value [2] is reported as 74.1%. For the same molecule, the EC50 [2] was 157 nM.
`CC(C)NC(=O)CNC(=O)c1ncc(S(=O)(=O)c2ccc(C(F)(F)F)cc2F)cc1N` [Compound 113, 3-amino-5-{[2-fluoro-4-(trifluoromethyl)phenyl]sulfonyl}-N-[2-oxo-2-(propan-2-ylamino)ethyl]pyridine-2-carboxamide] was tested, and the “% Activation” value [1] was 101.9%, the EC50 [1] was 10.4 nM and the “% Activation” value [2] was 41.1%. For the same molecule, the EC50 [2] was 297 nM.
In the case of `Nc1cc(S(=O)(=O)c2ccc(C(F)(F)F)cc2F)cnc1C(=O)NC[C@@H]1CCOC1` [Compound 114, 3-amino-5-{[2-fluoro-4-(trifluoromethyl)phenyl]sulfonyl}-N-[(3S)-tetrahydrofuran-3-ylmethyl]pyridine-2-carboxamide], the “% Activation” value [1] is reported as 109.3%, the EC50 [1] is reported as 19.1 nM and the “% Activation” value [2] is reported as 37.9%. For the same molecule, the EC50 [2] was over 10000 nM.
